We go through one substance from patent publication US11739350B2 (priority 2018, dated 2023).

The test system of the assay is HPAFII tumours. More on the design: species or system SCID mice. The conditions noted are these: mouse, in vivo, ip.

GSK126 gave a tumor volumes of 1609.3 mm^3.
